Measurements published in patent publication US20170290891A1, “METHOD OF BONE REGENERATION OR BONE AUGMENTATION” (TOYOBO CO., LTD., priority 2016, published 2017).

Columns and labels:
[1] = tested on: standardized full-thickness bone defect of the calvarium; experiment: Test Example 1: rat calvarium bone defect, OCP or β-TCP collagen composite + teriparatide subcutaneous injection; assay type: in vivo, Male Wistar rats
Text: Male Wistar rats (12 weeks old) were each intraperitoneally anesthetized, and a skin incision and a periosteal incision were made in the calvarium part to expose the calvarium. A standardized full-thickness bone defect (diameter: about 9 mm), for which spontaneous recovery could not be expected, was created. Then, one OCP/collagen composite disc produced in Production Example 2 or one β-TCP/collagen composite disc produced in Production Example 3 was implanted therein. As the control, rats in which only a bone defect was created, and no sample was implanted (untreated group) were prepared. After the sample was implanted, the periosteum and skin were sutured, and the surgery was completed. […] In the rats of the teriparatide subcutaneous injection group, 10 μg/kg of the teriparatide prepared in Production Example 5 was subcutaneously injected immediately after surgery and every day thereafter. Subcutaneous injection was performed in such a manner that the thawed teriparatide solution was sucked by a 1-mL syringe (27 G injection needle), the back skin was sterilized with a dilute Hibitane solution, and then a considerable amount of teriparatide solution was injected subcutaneously in the back. The observation period after surgery was 8 weeks for each group, and 5 rats were used in each period. […] Similarly, after CT photography 8 weeks after surgery, the rats were euthanized under anesthesia with an excess amount of pentobarbital. […] Then, tissue sections (thickness: […]) cut in the frontal plane were prepared, and a histological search was performed by hematoxylin-eosin staining. Further, using the plural tissue sections corresponding to the center of the defect of each sample, the ratio of new bone (n-Bone %) in the created defect was examined by histological quantification. Variance analysis, etc., were conducted using the average value and standard deviation of n-Bone % in each group, and a significance test was conducted. The significance level was set at 5%.

local bone formation = conditions: subcutaneous administration of PTH; NPL 2; cited from earlier work

CC[C@H](C)[C@H](NC(=O)[C@H](CCC(=O)O)NC(=O)[C@H](CO)NC(=O)[C@@H](NC(=O)[C@@H](N)CO)C(C)C)C(=O)N[C@@H](CCC(N)=O)C(=O)N[C@@H](CC(C)C)C(=O)N[C@@H](CCSC)C(=O)N[C@@H](Cc1cnc[nH]1)C(=O)N[C@@H](CC(N)=O)C(=O)N[C@@H](CC(C)C)C(=O)NCC(=O)N[C@@H](CCCCN)C(=O)N[C@@H](Cc1cnc[nH]1)C(=O)N[C@@H](CC(C)C)C(=O)N[C@@H](CC(N)=O)C(=O)N[C@@H](CO)C(=O)N[C@@H](CCSC)C(=O)N[C@@H](CCC(=O)O)C(=O)N[C@@H](CCCN=C(N)N)C(=O)N[C@H](C(=O)N[C@@H](CCC(=O)O)C(=O)N[C@@H](Cc1c[nH]c2ccccc12)C(=O)N[C@@H](CC(C)C)C(=O)N[C@@H](CCCN=C(N)N)C(=O)N[C@@H](CCCCN)C(=O)N[C@@H](CCCCN)C(=O)N[C@@H](CC(C)C)C(=O)N[C@@H](CCC(N)=O)C(=O)N[C@@H](CC(=O)O)C(=O)N[C@H](C(=O)N[C@@H](Cc1cnc[nH]1)C(=O)N[C@@H](CC(N)=O)C(=O)N[C@@H](Cc1ccccc1)C(=O)O)C(C)C)C(C)C [teriparatide]
ratio of new bone (n-Bone %) in the defect ([1]; 8 weeks after surgery, PTH groups: teriparatide 10 μg/kg subcutaneously every day, FIG. 5): 31.1±10.2%
X-ray photographs of the bone defect sites, living state (radiopaque image) ([1]; FIG. 1, PTH groups: teriparatide 10 μg/kg s.c. daily): radiopaque images in the defects were equally scarce
X-ray photographs of the calvarium and the surrounding tissue (radiopaque image) ([1]; FIG. 2, PTH groups: teriparatide 10 μg/kg s.c. daily): their thickness was thinner than that of the existing bone
stained pathological specimens, low-magnification (×1.25) ([1]; FIG. 3, 8 weeks after surgery, hematoxylin-eosin): thin bone tissue extending from the defect margins
stained pathological specimens, high-magnification ([1]; FIG. 4, 8 weeks after surgery, hematoxylin-eosin): thin new bone extended from the defect margins
new bone formation (summary of FIGS. 1 to 5) ([1]; teriparatide 10 μg/kg s.c. daily, 8 weeks): new bone formation was not observed
local bone formation (local bone formation): significantly promoted
